# Measurements as given in paper PMC9238271, “The quorum sensing peptide EntF* promotes colorectal cancer metastasis in mice: a new factor in the host-microbiome interaction” (BMC Biology, 2022).
# Where “and” joins values, the source holds several entries; their conditions need not be identical. Equal values may be shown once.
# Legend:
# [1] = system: E-cadherin expression in HCT-8 cells; test: Western blot of E-cadherin expression, HCT-8 cells (EntF*, alanine and D-amino acid analogs); assay type: cell-based
# Experimental: (§1) HCT-8, HT-29, and HT-116 cells were grown in DMEM medium supplied with 10% fetal bovine serum (FBS) and 1% penicillin-streptomycin. Caco-2 cells were grown in DMEM medium supplied with 10% FBS, 1% non-essential amino acid NEAA), and 1% penicillin-streptomycin. Cells were cultured at 37 °C and 5% CO2. As cells reached confluency, they were detached using 0.25% Trypsin-EDTA.
# (§2) For Western blot analyses, HCT-8 (n = 15), HCT-116 (n = 12), Caco-2 (n = 6), and HT-29 (n = 12) cells were seeded in 6-well plates at a density of 1 × 10^6 cells/well. Twenty-four hours after seeding, all cell lines were treated with 1 μM EntF* or a placebo solution. HCT-8 cells were also tested for responsiveness to 1 μM EntF* synthetic alanine-derived analogs. For antagonist activity analysis, HCT-8 cells were treated with 1 μM Nef-M1 or 1 μM EntF*A1 alone or in combination with 500 nM EntF*. After 24 h, cells were detached from the surface and lysed in RIPA buffer (Thermo Scientific). Protein concentration was determined using the modified Lowry protein assay kit (Thermo Scientific), according to the manufacturer’s instructions. Protein samples were diluted to the same concentration (4 μg/μL) with water and diluted again 1:1 using 2x Laemmli buffer. After that, samples were boiled for 5 min at 95 °C to denature proteins and centrifuged for 5 min at 16,000g; supernatants were used for Western blot analyses. Equal amounts of total protein (20 μg/lane) were separated by SDS-PAGE on an Any kD^TM gel (Bio-Rad ) and then transferred to a PVDF membrane. Before incubation with antibodies, non-specific binding sites on the membranes were blocked using 5% skimmed milk solution (1 h). TBS buffer with 0.05% Tween 20 was used for all washing steps. Membranes were incubated overnight at 4 °C with an anti-E-cadherin primary antibody (1/1000 dilution). An HRP-conjugated anti-rabbit antibody (1/2000 dilution, 1 h incubation) was used for chemiluminescent detection. Membranes were incubated with the detection substrate for 5 min and signal detection was performed using the ChemiDoc EZ imager and Image Lab software (Bio-Rad). Signal intensity was normalized against the total protein content in each lanes.
# A quantitative approach was used to evaluate the importance of each amino acid, where the Fisher’s LSD p-values of (1) multiple comparisons between EntF* and the alanine (ALA) scan and (2) multiple comparisons between different peptides of the ALA scan are combined. Subsequently, based on the combined P-score, the amino acids were classified in 5 classes using a hierarchical cluster analysis and confirmed using the Jenks natural breaks algorithm with K = 5. CombinedPscore=1-PPBSvsALAscan*PEntF*vsALAscan
# [2] = system: E-cadherin expression in HT-29 cells; test: Western blot of E-cadherin expression, HT-29 cells; assay type: cell-based; conditions: HT-29 cells, average of n = 12
# Experimental: as §1
# as §2, with “Signal intensity was normalized against the total protein content in each lanes.” left out
# [3] = system: E-cadherin expression in Caco-2 cells; test: Western blot of E-cadherin expression, Caco-2 cells; assay type: cell-based; conditions: CaCo-2 cells, average of n = 6
# Experimental: as §1
# as §2, with “Signal intensity was normalized against the total protein content in each lanes.” left out
# [4] = system: E-cadherin expression in HCT-116 cells; test: Western blot of E-cadherin expression, CXCR4-negative HCT-116 cells; assay type: cell-based
# Experimental: as §1, §2
# [5] = system: luciferase-transfected HCT-8/E11 cells injected into the cecal wall; test: Orthotopic mouse model of colorectal cancer: weekly bioluminescent imaging; assay type: in vivo, female athymic nude mice (Swiss nu/nu)
# Experimental: All in vivo experiments were performed according to the Ethical Committee principles of laboratory animal welfare, approved by our institute (Ghent University, Faculty of Medicine and Health Sciences, approval number ECD 17-90). Mice were maintained in a sterile environment under controlled conditions (light–dark cycle with light from 7:00 h to 17:00 h, temperature 21–25 °C and humidity 45–65%). Before the experiment, mice were allowed to acclimate to the abovementioned conditions for a minimum of 7 days.
# (§3) Six-week-old female athymic nude mice (Swiss nu/nu) were anesthetized, and a minimally invasive midline laparotomy was performed to localize the cecum. The cecum was then gently pulled out, and luciferase-transfected HCT-8/E11 cells (1 × 10^6 cells) in 20 μL serum-free DMEM medium with Matrigel (1:1) were injected into the cecal wall. Before implantation, cells were treated with EntF* (10^2 nM), Phr0662 (10^2 nM), vehicle (PBS), or TGFα positive control (0.1 μg mL^−1) solutions for 5 days. The cecum was then carefully placed back into the abdominal cavity and the surgical incision was closed with two layers of sutures with PDS 6-0. […] Once a week, mice were examined for tumor growth and metastases using bioluminescent imaging with the IVIS Lumina II (Perkin Elmer, Belgium) after i.p. injection with 200 μL luciferin (150 mg kg^−1). After 6 weeks, mice were euthanized using cervical dislocation, and the liver, diaphragm, lungs, cecum, duodenum, and peritoneum were macroscopically examined for the presence of tumor nodules. Liver and lung tissues were then fixed in formalin for 24 h and stored in 70% ethanol for maximum 3 days before embedding in paraffin. Next, a hematoxylin and eosin (H&E) staining was performed on 8 μm sections, and 3 sections per mouse were visualized using microscopy. Slides from tumor-bearing mice were analyzed by two blinded, independent investigators using the scoring system described in Additional file 5: Table S3. In case of differences, slides were scored by a third blinded, independent investigator for consensus.
# The Kolmogorov-Smirnov test was used to assess if data obtained were normally distributed. For sample size n < 10, non-parametric tests (Mann-Whitney U test) were performed directly. Slope comparison was based on linear regression analysis. Bootstrapped medians and Hedges G-values were used to calculate the effect size when sample sizes were different between the groups.
# [6] = system: luciferase-transfected HCT-8/E11 cells injected into the cecal wall; test: Orthotopic mouse model: macroscopic number of tumor nodules on the cecum; assay type: in vivo, female athymic nude mice (Swiss nu/nu)
# Experimental: as §3
# The Kolmogorov-Smirnov test was used to assess if data obtained were normally distributed. For sample size n < 10, non-parametric tests (Mann-Whitney U test) were performed directly. Slope comparison was based on linear regression analysis. Bootstrapped medians and Hedges G-values were used to calculate the effect size when sample sizes were different between the groups. Cohen’s d values were calculated as a measure of the effect size when similar standard deviations for both groups were found, and sample sizes were the same.
# [7] = system: tumor nodules in the liver; test: Orthotopic mouse model: histopathological evaluation of liver; assay type: in vivo, female athymic nude mice (Swiss nu/nu)
# Experimental: as §3
# [8] = system: tumor nodules in the lungs; test: Orthotopic mouse model: histopathological evaluation of lungs; assay type: in vivo, female athymic nude mice (Swiss nu/nu)
# Experimental: as §3
# [9] = after a 6-week treatment, compared to the placebo group
# [10] = individual samples, one line per sample
substance,measurement,setting,value
"C-X-C motif chemokine 12 (KPVSLSYRC; only N-terminal stretch given) [CXCL12, endogenous ligand of the CXCR4 receptor]",effect on E-cadherin levels in HCT-8 cells,"[1]; 24 h, n = 15",significant decrease
same,E-cadherin expression relative to H2O control (= 100),"[1]; D-scan sheet, Blot 13, CXCL12 1µg/ml, relative to H2O lane = 100.0, single blot",89.3
same,E-cadherin expression relative to H2O control (= 100),"[1]; D-scan sheet, Blot 14, CXCL12 1µg/ml, relative to H2O lane = 100.0, single blot",93.2
same,E-cadherin expression relative to H2O control (= 100),"[1]; D-scan sheet, Blot 15, CXCL12 1µg/ml, relative to H2O lane = 100.0, single blot",77.6
same,E-cadherin expression relative to H2O control (= 100),"[1]; D-scan sheet, Blot 16, CXCL12 1µg/ml, relative to H2O lane = 100.0, single blot",91.1
same,E-cadherin expression relative to H2O control (= 100),"[1]; D-scan sheet, Blot 17, CXCL12 10µg/ml, relative to H2O lane = 100.0, single blot",46.4
same,E-cadherin expression relative to H2O control (= 100),"[1]; D-scan sheet, Blot 18, CXCL12 10µg/ml, relative to H2O lane = 100.0, single blot",45.6
same,E-cadherin expression relative to H2O control (= 100),"[1]; D-scan sheet, Blot 19, CXCL12 10µg/ml, relative to H2O lane = 100.0, single blot",84.8
same,E-cadherin expression relative to H2O control (= 100),"[1]; D-scan sheet, Blot 20, CXCL12 10µg/ml, relative to H2O lane = 100.0, single blot",28.8
same,E-cadherin expression relative to H2O control (= 100),"[1]; D-scan sheet, Blot 21, CXCL12 100µg/ml, relative to H2O lane = 100.0, single blot",80.5
same,E-cadherin expression relative to H2O control (= 100),"[1]; D-scan sheet, Blot 22, CXCL12 100µg/ml, relative to H2O lane = 100.0, single blot",80.0
same,E-cadherin expression relative to H2O control (= 100),"[1]; D-scan sheet, Blot 23 (single blot), chemiluminescence band, Norm. Vol. relative to H2O lane = 100.0, CXCL12 at 100µg/ml",75.6
same,E-cadherin expression relative to H2O control (= 100),"[1]; D-scan sheet, Blot 24 (single blot), chemiluminescence band, Norm. Vol. relative to H2O lane = 100.0, CXCL12 at 100µg/ml",96.6
same,E-cadherin expression relative to H2O control (= 100),"[1]; H2O = 100.0, CXCL12 at 10µg/ml, mean of the replicates (row r47, unlabelled; SEM in row below)",51.4
same,"Relative E-cadherin decrease in different cell lines, Average","[1]; HCT-8 cells, average (EntF* n = 15, CXCL12 n = 4)",51.4
same,"Relative E-cadherin expression, average",[2],78.2
same,"Relative E-cadherin in different cell lines, Average",[3],45.3
same,effect on E-cadherin expression in HCT-116 cells,"[4]; CXCR4-negative cells, 24 h, n = 12",no decrease
same,Relative E-cadherin level,"[4]; HCT-116 cells, average of n = 12",111.3
Epidermal Growth Factor [EGF],"effect size of bioluminescence, upper end of range",[5]; after a 6-week treatment,826%
same,"effect size class by Hedges' G, bioluminescence",[5]; [9],medium to large effect
same,effect size: increase in bioluminescence compared to the placebo,"[5]; after a 6-week treatment, bootstrapped median",316%
same,luciferase activity / tumor growth compared to the vehicle,"[5]; daily i.p. over 6 weeks, linear regression slope comparison",significant increase in tumor growth
same,"effect size class by Hedges' G, number of nodules in the cecum",[6]; [9],large
same,increase in the number of nodules on the cecum compared to PBS vehicle,"[6]; after a 6-week treatment, macroscopic inspection",4.5 fold
same,Mean amount of nodules,"[6]; macroscopic evaluation caecum, mean of the group",16.3
same,"Histology scoring LIVER, Scoring person 1 (ND)",[7]; [10],4 and 3 and 2 and 0
same,"Histology scoring LIVER, Scoring person 2 (ADS)",[7]; [10],4 and 2 and 1 and 3 and 0
same,"Histology scoring LIVER, conclusion per sample",[7]; [10],4 and 2 and 1 and 3 and 0
same,"Histology scoring LIVER, conclusion per group",[7]; per group,3
same,"Histology scoring LUNGS, Scoring person 1 (ND)",[8]; [10],3 and 4 and 0 and 1
same,"Histology scoring LUNGS, Scoring person 2 (ADS)",[8]; [10],3 and 4 and 0 and 1
same,"Histology scoring LUNGS, conclusion per sample",[8]; [10],3 and 4 and 0 and 1
same,"Histology scoring LUNGS, conclusion per group",[8]; per group,3
TGFa,Relative E-cadherin decrease,"[1]; Ala-scan sheet, Blot 19 (single blot), chemiluminescence band, placebo lane = 100",49.4514
same,E-cadherin expression relative to H2O control (= 100),"[1]; Ala-scan sheet, Blot 20 (single blot), chemiluminescence band, placebo lane = 100",55.9239
same,Relative E-cadherin decrease,"[1]; Ala-scan sheet, Blot 21 (single blot), chemiluminescence band, placebo lane = 100",121.047
same,E-cadherin expression relative to H2O control (= 100),"[1]; Ala-scan sheet, Blot 24 (single blot), chemiluminescence band, Norm. Vol. relative to placebo lane = 100",52.2
same,E-cadherin expression relative to H2O control (= 100),"[1]; Ala-scan sheet, Blot 25 (single blot), chemiluminescence band, Norm. Vol. relative to placebo lane = 100",30.5
same,E-cadherin expression relative to H2O control (= 100),"[1]; Ala-scan sheet, Blot 26 (single blot), chemiluminescence band, Norm. Vol. relative to placebo lane = 100",88.2
same,E-cadherin expression relative to H2O control (= 100),"[1]; Ala-scan sheet, Blot 27 (single blot), chemiluminescence band, Norm. Vol. relative to placebo lane = 100",330.9
same,E-cadherin expression relative to H2O control (= 100),"[1]; Ala-scan, Blot 11 (single blot replicate), normalized band volume relative to Placebo = 100.0",85.7
same,E-cadherin expression relative to H2O control (= 100),"[1]; Ala-scan, Blot 12 (single blot replicate), normalized band volume relative to Placebo = 100.0",80.6
same,E-cadherin expression relative to H2O control (= 100),"[1]; Ala-scan, Blot 13 (single blot replicate), normalized band volume relative to Placebo = 100.0",55.6
same,E-cadherin expression relative to H2O control (= 100),"[1]; Ala-scan, Blot 14 (single blot replicate), normalized band volume relative to Placebo = 100.0",119.9
same,E-cadherin expression relative to H2O control (= 100),"[1]; Ala-scan, Blot 18 (single blot replicate), normalized band volume relative to Placebo = 100.0",188.1
same,Ala scan: Relative E-cadherin decrease,"[1]; H2O = 100.0, mean of the replicates (row r29, unlabelled; SEM in row below)",73.9
same,Ala-scan: Mean decrease (%),"[1]; H2O vs. test, 95% CI, Dunnett's and Fisher's LSD P values in neighbouring columns",26.1%
